pIC50: −log10 of the molar value.
Tests used:
B-Raf [1] = target: B-Raf (Homo sapiens (Human), UniProt P15056); test: B-Raf kinase activity biochemical assay (AlphaScreen, biotin-MEK1 phosphorylation); details: B-Raf
Summary of the method: (§1)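 Biotin-MEK1 phosphorylation measured after 45 min kinase reaction at RT with 100 μM ATP final; compounds tested at 8 points from 0.1 mM DMSO stock.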

B-Raf [2] = test: as above; details: for Biochemical activity ratio B/V600E: ratio of IC50 B-Raf / B-Raf V600E; for Biochemical activity ratio B/C: ratio of IC50 B-Raf / c-Raf-1
Summary of the method: as §1

B-Raf V600E = B-Raf V600E (Homo sapiens (Human), UniProt P15056, V600E); test: B-Raf V600E kinase activity biochemical assay (AlphaScreen, biotin-MEK1 phosphorylation); details: for IC50: B-Raf V600E; for Biochemical activity ratio V600E/C: ratio of IC50 B-Raf V600E / c-Raf-1
Chain of B-Raf V600E (P15056 whole entry V600E): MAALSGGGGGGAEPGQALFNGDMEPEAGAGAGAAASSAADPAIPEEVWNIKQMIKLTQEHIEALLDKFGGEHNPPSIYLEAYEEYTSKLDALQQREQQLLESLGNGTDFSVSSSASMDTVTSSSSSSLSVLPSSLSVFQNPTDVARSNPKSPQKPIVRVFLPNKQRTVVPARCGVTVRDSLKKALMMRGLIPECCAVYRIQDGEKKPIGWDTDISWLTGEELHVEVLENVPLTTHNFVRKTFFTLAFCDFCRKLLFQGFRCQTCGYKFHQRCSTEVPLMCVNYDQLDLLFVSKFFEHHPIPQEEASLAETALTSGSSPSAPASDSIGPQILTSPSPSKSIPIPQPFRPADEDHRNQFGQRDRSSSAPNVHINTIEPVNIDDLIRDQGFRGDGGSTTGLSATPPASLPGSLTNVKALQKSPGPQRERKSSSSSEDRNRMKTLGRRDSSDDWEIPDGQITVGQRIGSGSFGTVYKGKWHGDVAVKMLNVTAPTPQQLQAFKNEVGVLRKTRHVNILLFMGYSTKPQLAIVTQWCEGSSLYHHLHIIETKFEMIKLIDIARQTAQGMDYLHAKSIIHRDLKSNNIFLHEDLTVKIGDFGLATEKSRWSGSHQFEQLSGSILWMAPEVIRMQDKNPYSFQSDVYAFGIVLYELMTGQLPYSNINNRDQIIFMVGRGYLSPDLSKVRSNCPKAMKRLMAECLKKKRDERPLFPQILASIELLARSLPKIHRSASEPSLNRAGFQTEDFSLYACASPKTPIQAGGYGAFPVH
Summary of the method: as §1

c-Raf-1 = c-Raf-1 (Homo sapiens, UniProt P04049); test: c-Raf-1 kinase activity biochemical assay (AlphaScreen, biotin-MEK1 phosphorylation)
Chain of c-Raf-1 (P04049 whole entry, looked up): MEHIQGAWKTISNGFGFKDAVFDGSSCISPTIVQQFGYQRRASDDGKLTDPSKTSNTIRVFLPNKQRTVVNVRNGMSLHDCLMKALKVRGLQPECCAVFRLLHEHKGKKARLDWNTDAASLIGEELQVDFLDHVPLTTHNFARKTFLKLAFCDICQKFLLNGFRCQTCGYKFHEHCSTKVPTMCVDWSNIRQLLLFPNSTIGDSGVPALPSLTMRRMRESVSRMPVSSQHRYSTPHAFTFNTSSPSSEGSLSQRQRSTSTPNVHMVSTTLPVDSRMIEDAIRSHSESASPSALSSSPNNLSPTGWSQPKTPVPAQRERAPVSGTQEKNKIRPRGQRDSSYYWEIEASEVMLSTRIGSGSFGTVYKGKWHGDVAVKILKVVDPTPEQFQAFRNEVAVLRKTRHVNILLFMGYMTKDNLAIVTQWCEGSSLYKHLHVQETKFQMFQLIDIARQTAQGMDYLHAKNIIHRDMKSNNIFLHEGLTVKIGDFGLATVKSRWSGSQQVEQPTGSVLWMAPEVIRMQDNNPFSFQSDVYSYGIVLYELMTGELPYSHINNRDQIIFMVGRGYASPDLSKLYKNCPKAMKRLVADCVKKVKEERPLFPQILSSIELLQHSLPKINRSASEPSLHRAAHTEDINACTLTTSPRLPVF
Summary of the method: as §1

[3] = Relative solubility by turbidity threshold concentration in aqueous buffers (pH 1.5, 4.5, 6.8, 7.4); assay type: physicochemical; details: for turbidity threshold (L, M, H) 1.4: pH 1.4 [sic] (method: SGF pH 1.5); for turbidity threshold (L, M, H) 4.5: pH 4.5 (SIF); for turbidity threshold (L, M, H) 6.8: pH 6.8 (SIF); for turbidity threshold (L, M, H) 7.4: pH 7.4 (HEPES)
Summary of the method: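 Solubility class (high >250 μM, moderate 31.3–250 μM, low <31.3 μM) comes from the concentration where absorbance reaches a 0.01 threshold, averaged across 490/535/650 nm. Samples were compound dilutions from DMSO stock, 1 μL into 99 μL buffer at pH 1.5, 4.5, 6.8 or 7.4.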

CYP1A2 = CYP1A2 (Homo sapiens (Human), UniProt P05177); test: CYP enzyme inhibition, fluorescent substrate (CEC)
Chain of CYP1A2 (P05177 whole entry): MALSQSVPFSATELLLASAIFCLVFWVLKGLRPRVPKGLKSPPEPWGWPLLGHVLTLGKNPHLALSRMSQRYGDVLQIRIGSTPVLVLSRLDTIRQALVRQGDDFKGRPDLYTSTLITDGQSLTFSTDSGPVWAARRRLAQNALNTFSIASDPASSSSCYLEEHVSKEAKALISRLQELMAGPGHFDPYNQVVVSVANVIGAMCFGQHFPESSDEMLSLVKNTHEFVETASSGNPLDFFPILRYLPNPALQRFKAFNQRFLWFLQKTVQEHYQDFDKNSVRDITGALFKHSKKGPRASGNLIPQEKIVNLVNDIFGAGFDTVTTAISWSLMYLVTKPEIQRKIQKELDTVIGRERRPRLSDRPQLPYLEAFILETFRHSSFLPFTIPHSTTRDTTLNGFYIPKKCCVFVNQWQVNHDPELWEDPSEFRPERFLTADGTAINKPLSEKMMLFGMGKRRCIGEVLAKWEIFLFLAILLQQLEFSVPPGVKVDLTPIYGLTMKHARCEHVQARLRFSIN
Summary of the method: (§2)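 Ten-point 1:1 compound dilutions in NADPH-regenerating cofactor mix, pre-incubated 10 min at 37 °C before enzyme/substrate addition: CYP1A2 0.5 pmol with 5 μM CEC, 15 min, 409 ex/460 em; CYP2D6 1.5 pmol with 1.5 μM AMMC, 30 min, 409 ex/530 em. IC50 from fluorescent product vs concentration.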

CYP2C19 = CYP2C19 (Homo sapiens (Human), UniProt P33261); test: CYP enzyme inhibition, fluorescent substrate (CEC)
Chain of CYP2C19 (P33261 whole entry): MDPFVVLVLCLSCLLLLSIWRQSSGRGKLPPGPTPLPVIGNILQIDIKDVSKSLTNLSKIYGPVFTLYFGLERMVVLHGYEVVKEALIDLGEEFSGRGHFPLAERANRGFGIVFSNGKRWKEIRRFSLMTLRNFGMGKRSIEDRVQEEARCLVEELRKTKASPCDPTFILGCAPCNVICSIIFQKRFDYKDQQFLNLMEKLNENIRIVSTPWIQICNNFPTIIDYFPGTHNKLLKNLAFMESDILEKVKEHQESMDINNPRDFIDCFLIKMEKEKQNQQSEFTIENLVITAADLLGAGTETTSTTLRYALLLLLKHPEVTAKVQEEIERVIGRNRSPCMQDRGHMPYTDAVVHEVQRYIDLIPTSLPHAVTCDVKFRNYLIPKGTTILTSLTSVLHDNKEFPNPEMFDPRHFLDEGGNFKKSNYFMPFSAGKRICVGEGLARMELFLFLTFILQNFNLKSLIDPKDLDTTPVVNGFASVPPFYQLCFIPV
Summary of the method: (§3)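 Human CYP activity was followed by the fluorescence of the metabolized product of a known substrate, which falls as metabolism is inhibited. Compounds from 100 mM DMSO stocks were serially diluted 1:1 over 10 points in co-factor mix and preincubated 10 min at 37 °C. IC50 was fitted from signal versus concentration.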

CYP2C9 = CYP2C9 (Homo sapiens (Human), UniProt P11712); test: CYP enzyme inhibition, fluorescent substrate (MFC)
Chain of CYP2C9 (P11712 whole entry): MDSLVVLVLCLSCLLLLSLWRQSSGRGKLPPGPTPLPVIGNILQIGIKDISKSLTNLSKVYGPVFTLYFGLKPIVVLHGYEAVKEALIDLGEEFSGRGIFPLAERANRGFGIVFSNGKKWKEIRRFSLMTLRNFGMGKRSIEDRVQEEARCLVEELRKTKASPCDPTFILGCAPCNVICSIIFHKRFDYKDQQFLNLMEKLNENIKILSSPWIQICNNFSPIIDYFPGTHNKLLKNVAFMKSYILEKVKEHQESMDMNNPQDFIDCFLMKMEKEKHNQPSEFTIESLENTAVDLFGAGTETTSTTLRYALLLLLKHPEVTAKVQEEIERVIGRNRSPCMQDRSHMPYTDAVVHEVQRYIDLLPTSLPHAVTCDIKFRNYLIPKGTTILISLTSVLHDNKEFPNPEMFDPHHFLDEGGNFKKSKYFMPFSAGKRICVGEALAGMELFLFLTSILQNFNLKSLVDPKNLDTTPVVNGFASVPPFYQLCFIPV
Summary of the method: as §3

CYP2D6 = CYP2D6 (Homo sapiens (Human), UniProt P10635); test: CYP enzyme inhibition, fluorescent substrate (AMMC); assay type: in vitro ADME; details: read-out: Cyp IC50 2D6
Chain of CYP2D6 (P10635 whole entry): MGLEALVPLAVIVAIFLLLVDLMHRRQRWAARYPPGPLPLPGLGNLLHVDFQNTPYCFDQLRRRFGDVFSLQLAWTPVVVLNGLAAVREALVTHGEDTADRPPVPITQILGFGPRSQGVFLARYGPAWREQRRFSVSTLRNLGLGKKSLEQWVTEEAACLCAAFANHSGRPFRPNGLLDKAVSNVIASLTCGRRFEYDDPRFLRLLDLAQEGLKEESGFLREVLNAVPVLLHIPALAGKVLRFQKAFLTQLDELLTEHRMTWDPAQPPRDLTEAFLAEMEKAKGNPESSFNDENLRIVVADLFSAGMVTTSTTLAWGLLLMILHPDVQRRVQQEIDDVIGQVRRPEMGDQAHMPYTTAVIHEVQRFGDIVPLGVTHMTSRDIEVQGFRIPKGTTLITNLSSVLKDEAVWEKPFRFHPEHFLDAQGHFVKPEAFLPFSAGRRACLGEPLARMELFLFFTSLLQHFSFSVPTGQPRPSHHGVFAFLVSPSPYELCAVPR
Summary of the method: as §2

CYP3A4(BFC) = CYP3A4(BFC) (Homo sapiens (Human), UniProt P08684); test: CYP enzyme inhibition, fluorescent substrate BFC
Chain of CYP3A4(BFC) (P08684 whole entry): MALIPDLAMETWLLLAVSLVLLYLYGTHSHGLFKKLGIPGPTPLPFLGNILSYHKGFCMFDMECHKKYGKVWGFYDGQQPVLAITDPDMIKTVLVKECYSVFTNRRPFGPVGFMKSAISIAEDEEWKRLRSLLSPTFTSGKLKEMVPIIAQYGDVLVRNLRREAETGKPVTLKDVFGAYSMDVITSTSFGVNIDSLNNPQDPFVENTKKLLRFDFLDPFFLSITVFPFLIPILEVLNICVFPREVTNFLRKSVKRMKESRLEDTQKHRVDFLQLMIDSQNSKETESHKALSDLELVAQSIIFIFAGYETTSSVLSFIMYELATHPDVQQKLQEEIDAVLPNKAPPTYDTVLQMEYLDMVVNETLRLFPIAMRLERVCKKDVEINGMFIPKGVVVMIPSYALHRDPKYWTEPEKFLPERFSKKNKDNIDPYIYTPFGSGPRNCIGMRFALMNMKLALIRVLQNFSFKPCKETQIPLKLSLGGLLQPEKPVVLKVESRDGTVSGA
Summary of the method: as §3

CYP3A4(BQ) = CYP3A4(BQ) (Homo sapiens (Human), UniProt P08684); test: CYP enzyme inhibition, fluorescent substrate BQ
Chain of CYP3A4(BQ) (P08684 whole entry): as above
Summary of the method: as §3

Chain of B-Raf (Homo sapiens (Human), UniProt P15056) (P15056 whole entry): as the sequence (P15056 whole entry V600E) above, with E600V counted along it

## CCCS(=O)(=O)Nc1ccc(F)c(C(=O)c2c[nH]c3ncc(C#N)c(Cl)c23)c1F [P-2004, Propane-1-sulfonic acid [3-(4-chloro-5-cyano-1H-pyrrolo[2,3-b]pyridine-3-carbonyl)-2,4-difluoro-phenyl]-amide]
B-Raf [1]
  IC50: < 0.1 µM
B-Raf [2]
  Biochemical activity ratio B/V600E: 0.1-10
  Biochemical activity ratio B/C: >10
B-Raf V600E
  IC50: < 0.1 µM
  Biochemical activity ratio V600E/C: 0.1-10
c-Raf-1
  IC50: < 0.1 µM
[3]
  turbidity threshold (L, M, H) 1.4: L (low solubility if the threshold concentration is <31.3 μM)
  turbidity threshold (L, M, H) 4.5: L (low solubility if the threshold concentration is <31.3 μM)
  turbidity threshold (L, M, H) 6.8: L (low solubility if the threshold concentration is <31.3 μM)
  turbidity threshold (L, M, H) 7.4: L (low solubility if the threshold concentration is <31.3 μM)
CYP1A2
  pIC50: < 5.00
CYP2C19
  pIC50: < 5.00
CYP2C9
  pIC50: > 5.30
CYP2D6
  pIC50: < 5.00
CYP3A4(BFC)
  pIC50: < 5.00
CYP3A4(BQ)
  pIC50: < 5.00

## CCCS(=O)(=O)Nc1ccc(F)c(C(=O)c2c[nH]c3ncc(C#N)c(OC)c23)c1F [P-2005, Propane-1-sulfonic acid [3-(5-cyano-4-methoxy-1H-pyrrolo[2,3-b]pyridine-3-carbonyl)-2,4-difluoro-phenyl]-amide]
B-Raf [1]
  IC50: < 0.1 µM
B-Raf [2]
  Biochemical activity ratio B/V600E: 0.1-10
  Biochemical activity ratio B/C: 0.1-10
B-Raf V600E
  IC50: < 0.1 µM
  Biochemical activity ratio V600E/C: 0.1-10
c-Raf-1
  IC50: < 0.1 µM
[3]
  turbidity threshold (L, M, H) 1.4: M (moderate solubility if the threshold concentration is 31.3 μM to 250 μM)
  turbidity threshold (L, M, H) 4.5: L (low solubility if the threshold concentration is <31.3 μM)
  turbidity threshold (L, M, H) 6.8: L (low solubility if the threshold concentration is <31.3 μM)
  turbidity threshold (L, M, H) 7.4: M (moderate solubility if the threshold concentration is 31.3 μM to 250 μM)
CYP1A2
  pIC50: < 5.00
CYP2C19
  pIC50: < 5.00
CYP2C9
  pIC50: > 5.30
CYP2D6
  pIC50: < 5.00
CYP3A4(BFC)
  pIC50: < 5.00
CYP3A4(BQ)
  pIC50: < 5.00

## CCCS(=O)(=O)Nc1ccc(F)c(C(=O)c2c[nH]c3ncc(Cl)c(OC)c23)c1F [P-2006, Propane-1-sulfonic acid [3-(5-chloro-4-methoxy-1H-pyrrolo[2,3-b]pyridine-3-carbonyl)-2,4-difluoro-phenyl]-amide]
B-Raf [1]
  IC50: < 0.1 µM
B-Raf [2]
  Biochemical activity ratio B/V600E: 0.1-10
  Biochemical activity ratio B/C: >10
B-Raf V600E
  IC50: < 0.1 µM
  Biochemical activity ratio V600E/C: 0.1-10
c-Raf-1
  IC50: < 0.1 µM
[3]
  turbidity threshold (L, M, H) 1.4: M (moderate solubility if the threshold concentration is 31.3 μM to 250 μM)
  turbidity threshold (L, M, H) 4.5: M (moderate solubility if the threshold concentration is 31.3 μM to 250 μM)
  turbidity threshold (L, M, H) 6.8: M (moderate solubility if the threshold concentration is 31.3 μM to 250 μM)
  turbidity threshold (L, M, H) 7.4: M (moderate solubility if the threshold concentration is 31.3 μM to 250 μM)
CYP1A2
  pIC50: < 5.00
CYP2C19
  pIC50: > 5.30
CYP2C9
  pIC50: > 5.30
CYP2D6
  pIC50: < 5.00
CYP3A4(BFC)
  pIC50: 5.00 to 5.30
CYP3A4(BQ)
  pIC50: < 5.00

## CCCS(=O)(=O)Nc1ccc(F)c(C(=O)c2c[nH]c3ncc(Cl)c(C#N)c23)c1F [P-2007, Propane-1-sulfonic acid [3-(5-chloro-4-cyano-1H-pyrrolo[2,3-b]pyridine-3-carbonyl)-2,4-difluoro-phenyl]-amide]
B-Raf [1]
  IC50: < 0.1 µM
B-Raf [2]
  Biochemical activity ratio B/V600E: 0.1-10
  Biochemical activity ratio B/C: 0.1-10
B-Raf V600E
  IC50: < 0.1 µM
  Biochemical activity ratio V600E/C: 0.1-10
c-Raf-1
  IC50: < 0.1 µM
[3]
  turbidity threshold (L, M, H) 1.4: M (moderate solubility if the threshold concentration is 31.3 μM to 250 μM)
  turbidity threshold (L, M, H) 4.5: M (moderate solubility if the threshold concentration is 31.3 μM to 250 μM)
  turbidity threshold (L, M, H) 6.8: M (moderate solubility if the threshold concentration is 31.3 μM to 250 μM)
  turbidity threshold (L, M, H) 7.4: M (moderate solubility if the threshold concentration is 31.3 μM to 250 μM)
CYP1A2
  pIC50: < 5.00
CYP2C19
  pIC50: < 5.00
CYP2C9
  pIC50: > 5.30
CYP2D6
  pIC50: < 5.00
CYP3A4(BFC)
  pIC50: < 5.00
CYP3A4(BQ)
  pIC50: < 5.00

## CCCS(=O)(=O)Nc1ccc(F)c(C(=O)c2c[nH]c3ncc(Cl)c(C)c23)c1F [P-2008, Propane-1-sulfonic acid [3-(5-chloro-4-methyl-1H-pyrrolo[2,3-b]pyridine-3-carbonyl)-2,4-difluoro-phenyl]-amide]
B-Raf [1]
  IC50: < 0.1 µM
B-Raf [2]
  Biochemical activity ratio B/V600E: 0.1-10
  Biochemical activity ratio B/C: 0.1-10
B-Raf V600E
  IC50: < 0.1 µM
  Biochemical activity ratio V600E/C: 0.1-10
c-Raf-1
  IC50: < 0.1 µM
[3]
  turbidity threshold (L, M, H) 1.4: L (low solubility if the threshold concentration is <31.3 μM)
  turbidity threshold (L, M, H) 4.5: M (moderate solubility if the threshold concentration is 31.3 μM to 250 μM)
  turbidity threshold (L, M, H) 6.8: L (low solubility if the threshold concentration is <31.3 μM)
  turbidity threshold (L, M, H) 7.4: M (moderate solubility if the threshold concentration is 31.3 μM to 250 μM)
CYP1A2
  pIC50: < 5.00
CYP2C19
  pIC50: 5.00 to 5.30
CYP2C9
  pIC50: 5.00 to 5.30
CYP2D6
  pIC50: < 5.00
CYP3A4(BFC)
  pIC50: < 5.00
CYP3A4(BQ)
  pIC50: < 5.00

## N#Cc1c(F)cnc2[nH]cc(C(=O)c3c(F)ccc(NS(=O)(=O)c4ccc(C(F)(F)F)cc4)c3F)c12 [P-2009, N-[3-(4-Cyano-5-fluoro-1H-pyrrolo[2,3-b]pyridine-3-carbonyl)-2,4-difluoro-phenyl]-4-trifluoromethyl-benzenesulfonamide]
B-Raf [1]
  IC50: < 0.1 µM
B-Raf [2]
  Biochemical activity ratio B/V600E: 0.1-10
  Biochemical activity ratio B/C: >10
B-Raf V600E
  IC50: > 0.1 µM
  Biochemical activity ratio V600E/C: >10
c-Raf-1
  IC50: < 0.1 µM
[3]
  turbidity threshold (L, M, H) 1.4: L (low solubility if the threshold concentration is <31.3 μM)
  turbidity threshold (L, M, H) 4.5: M (moderate solubility if the threshold concentration is 31.3 μM to 250 μM)
  turbidity threshold (L, M, H) 6.8: M (moderate solubility if the threshold concentration is 31.3 μM to 250 μM)
  turbidity threshold (L, M, H) 7.4: M (moderate solubility if the threshold concentration is 31.3 μM to 250 μM)
CYP1A2
  pIC50: < 5.00
CYP2C19
  pIC50: < 5.00
CYP2C9
  pIC50: < 5.00
CYP2D6
  pIC50: < 5.00
CYP3A4(BFC)
  pIC50: < 5.00
CYP3A4(BQ)
  pIC50: < 5.00

## N#Cc1c(Cl)cnc2[nH]cc(C(=O)c3c(F)ccc(NS(=O)(=O)c4ccc(C(F)(F)F)cc4)c3F)c12 [P-2010, N-[3-(5-Chloro-4-cyano-1H-pyrrolo[2,3-b]pyridine-3-carbonyl)-2,4-difluoro-phenyl]-4-trifluoromethyl-benzenesulfonamide]
B-Raf [1]
  IC50: < 0.1 µM
B-Raf [2]
  Biochemical activity ratio B/V600E: 0.1-10
  Biochemical activity ratio B/C: >10
B-Raf V600E
  IC50: < 0.1 µM
  Biochemical activity ratio V600E/C: >10
c-Raf-1
  IC50: < 0.1 µM
[3]
  turbidity threshold (L, M, H) 1.4: L (low solubility if the threshold concentration is <31.3 μM)
  turbidity threshold (L, M, H) 4.5: L (low solubility if the threshold concentration is <31.3 μM)
  turbidity threshold (L, M, H) 6.8: L (low solubility if the threshold concentration is <31.3 μM)
  turbidity threshold (L, M, H) 7.4: M (moderate solubility if the threshold concentration is 31.3 μM to 250 μM)
CYP1A2
  pIC50: < 5.00
CYP2C19
  pIC50: < 5.00
CYP2C9
  pIC50: 5.00 to 5.30
CYP2D6
  pIC50: > 5.30
CYP3A4(BFC)
  pIC50: < 5.00
CYP3A4(BQ)
  pIC50: < 5.00

## Cc1c(Cl)cnc2[nH]cc(C(=O)c3c(F)ccc(NS(=O)(=O)c4ccc(C(F)(F)F)cc4)c3F)c12 [P-2011, N-[3-(5-Chloro-4-methyl-1H-pyrrolo[2,3-b]pyridine-3-carbonyl)-2,4-difluoro-phenyl]-4-trifluoromethyl-benzene sulfonamide]
B-Raf [1]
  IC50: < 0.1 µM
B-Raf [2]
  Biochemical activity ratio B/V600E: 0.1-10
  Biochemical activity ratio B/C: 0.1-10
B-Raf V600E
  IC50: > 0.1 µM
  Biochemical activity ratio V600E/C: >10
c-Raf-1
  IC50: < 0.1 µM
[3]
  turbidity threshold (L, M, H) 1.4: L (low solubility if the threshold concentration is <31.3 μM)
  turbidity threshold (L, M, H) 4.5: L (low solubility if the threshold concentration is <31.3 μM)
  turbidity threshold (L, M, H) 6.8: L (low solubility if the threshold concentration is <31.3 μM)
  turbidity threshold (L, M, H) 7.4: L (low solubility if the threshold concentration is <31.3 μM)
CYP1A2
  pIC50: < 5.00
CYP2C19
  pIC50: > 5.30
CYP2C9
  pIC50: < 5.00
CYP2D6
  pIC50: 5.00 to 5.30
CYP3A4(BFC)
  pIC50: < 5.00
CYP3A4(BQ)
  pIC50: < 5.00
